According to patent US5045559A, “Treatment of skin disorders” (priority 1988, dated 1991):
Where two headings read alike, the source gives them in different places.

Legend:
[1] = In vivo delivery to human stratum corneum (tritiated esters applied to arms of volunteers, tape stripping); conditions: 18 hours; for Pyroglutamic acid delivered, Ethanol base: 1% w/v in anhydrous ethanol; for Pyroglutamic acid delivered, Cream base: 1% w/v in oil-in-water emulsion base
Text: Accordingly, [^3 H] esters of pyroglutamic acid were each dissolved at 1% w/v in anhydrous ethanol or in an oil-in-water emulsion base. […] The [^3 H] pyroglutamic acid was separated from unchanged ester by chromotography on AG1X8 resin and the amount delivered to the skin expressed as nmoles per mg of stratum corneum protein.

[2] = In vitro delivery of pyroglutamic acid to stratum corneum of the rat (tritiated esters on newborn rat skin, resistant to 2 h water washing); assay type: in vitro ADME
Procedure: In vitro evidence to confirm delivery of pyroglutamic acid to stratum corneum of the rat
In an in vitro laboratory test, esters of pyroglutamic acid labelled with ^3 H on the pyroglutamic acid residue were applied as a 1% by weight solution in ethanol to newborn rat skin held in a glass cell, allowing the dermal side of the skin to be bathed in a buffered salts solution while the epidermal surface was exposed to normal atmospheric conditions. After 24 hours, samples of skin were taken and washed with continuous agitation in several charges of water at room temperature.
Interfollicular epidermis was removed from these skin pieces by "freeze scraping"-which avoids contamination of the sample by follicular tissue or material trapped within the hair follicle. The epidermis was then extracted in methanol and the soluble extract analysed by column chromatography. The amount of tritiated pyroglutamic acid present in the epidermis in a form resistant to a period of 2 hours continuous washing with water was measured. The quantity of tritiated pyroglutamic acid delivered and retained by the skin in this way is recorded in Table 1 below: […]

Row | SMILES | Pyroglutamic acid delivered, Ethanol base [1] [n mol/mg protein] | Pyroglutamic acid delivered, Cream base [1] [n mol/mg protein] | Pyroglutamic acid delivered [2] [n moles/cm^2 skin] | other results
1 | CCCCCCCCCCCCOC(=O)[C@@H]1CCC(=O)N1 [Dodecyl, pyroglutamic acid n-dodecyl ester] | 4 | 1 | – | –
2 | CCOC(=O)[C@@H]1CCC(=O)N1 [Pyroglutamic acid, ethyl ester, pyroglutamic acid ethyl ester] | 8 | 5 | – | Pyroglutamic acid delivered ([2]; 1% by weight in ethanol, newborn rat skin, 24 hours, resistant to 2 hours continuous washing with water): 18 ± 5 n moles/cm^2 skin
3 | CCCCCCCCOC(=O)[C@@H]1CCC(=O)N1 [Pyroglutamic acid, n-octyl ester, pyroglutamic acid n-octyl ester] | 4 | 1 | 36 ± 7 | delivery to the stratum corneum of pyroglutamic acid which resisted washing out with water (in words) [2]: best result
4 | O=C1CCC(C(=O)O)N1 (stereo not shown) [pyroglutamic acid, 2-pyrrolidone-5-carboxylic acid, reference compound] | – | – | – | amount recovered from / reaching the stratum corneum following topical application (in words) [1]: little pyroglutamic acid reached the stratum corneum if applied as the free acid; amount recovered from / reaching the stratum corneum following topical application (in words) ([1]; listed as [^3 H] pyroglutamic acid): negligible amount

More lines, main results first:

Row | Pyroglutamic acid delivered, Ethanol base [1] [n mol/mg protein] | Pyroglutamic acid delivered, Cream base [1] [n mol/mg protein] | Pyroglutamic acid delivered [2] [n moles/cm^2 skin] | SMILES | other results
5 | – | – | 17 ± 5 | COC(=O)[C@@H]1CCC(=O)N1 [Pyroglutamic acid, methyl ester, pyroglutamic acid methyl ester] | –
6 | 6 | 2 | 17 ± 8 | CCCCOC(=O)[C@@H]1CCC(=O)N1 [Pyroglutamic acid, n-butyl ester, pyroglutamic acid n-butyl ester] | –
7 | 5 | 2 | 32 ± 10 | CCCCCCOC(=O)[C@@H]1CCC(=O)N1 [Pyroglutamic acid, n-hexyl ester, pyroglutamic acid n-hexyl ester] | –
8 | – | – | 21 ± 8 | CCCOC(=O)[C@@H]1CCC(=O)N1 [Pyroglutamic acid, n-propyl ester, pyroglutamic acid n-propyl ester] | –
